8 molecules from patent publication US4889854A, “Tricyclic pyridone derivatives” (Hoffman-La Roche Inc., priority 1987, dated 1989) can be followed below.

Data set [1] can be described thus: acute toxicity, single oral administration to mice. The conditions noted are these: mouse, in vivo, single oral administration (p.o.). How it is done: (§1) In this animal experiment, the compound under investigation is administered orally to mice and 30 minutes later they are administered intraperitoneally 120 mg/kg of pentetrazole, which causes emprosthotonus and tonic stretchings of the fore and/or hind limbs in unprotected animals, 1-4 minutes after the injection. Ten (10) experimental animals are used per dosage of test substance. After counting the protected experimental animals, the ED50 is determined according to the known Probit method. The ED50 is that dosage which protects 50% of the experimental animals from the spasmodic seizures caused by pentetrazole. The results which have been obtained with representative members of the class of compound defined by formula A in the experiment described previously are compiled in the following Table. Moreover, the Table contains data concerning the acute toxicity (LD50) of some of these compounds in mg/kg in the case of single oral administration to mice.

The test system of data set [2] is spasmodic seizures caused by pentetrazole. The data set is described as follows: antipentetrazole test (oral administration, mice). In kind it is in vivo. The conditions noted are these: Mus musculus, 30 minutes before 120 mg/kg pentetrazole i.p., dosage which protects 50% of the animals, Probit method. How it is done: As mentioned earlier, the compounds of formula A have valuable pharmacological properties. In particular, they display pronounced muscle relaxant, sedative-hypnotic, anticonvulsive and/or anxiolytic properties and have only a low toxicity.
as §1

SMILES strings stand for the structures.

Broadly, the LD50 is the dose expected to kill half of the subjects tested. Read a low LD50 as greater toxicity. Usually ED50 stands for the dose at which the effect has come halfway, by size or by number of responders. Lower therefore signals an effect at a small dose. `COC[C@H]1CCCN1C(=O)c1cc(-c2ccccc2)c(=O)n2c1-c1cc(Cl)ccc1CN2` [Compound B, (R)-1-[(10-chloro-6,7-dihydro-4-oxo-3-phenyl-4H-pyrido[2,1-a]phthalazin-1-yl)carbonyl]-2-(methoxymethyl)pyrrolidine]: the LD50 in data set [1] was over 3000 mg/kg. Also, the ED50 in data set [2] was found to be 0.44 mg/kg.
In the same order, the values of `COC1CN(C(=O)c2cc(-c3ccccc3)c(=O)n3c2-c2sccc2CN3C)C1` [G, 1-[(4,5-dihydro-5-methyl-7-oxo-8-phenyl-7H-pyrido[1,2-b]thieno[2,3-d]pyridazin-10-yl)carbonyl]-3-methoxyazetidine] are over 5000 mg/kg and 8.2 mg/kg.
On the same counts, the results for `O=C(c1cc(-c2ccccc2)c(=O)n2c1-c1cc(Cl)ccc1CN2)N1CCOCC1` [Compound A, 4-[(10-chloro-6,7-dihydro-4-oxo-3-phenyl-4H-pyrido[2,1-a]phthalazin-1-yl)carbonyl]morpholine] are over 3000 mg/kg and 3.1 mg/kg.
For `CO[C@@H]1CCN(C(=O)c2cc(-c3ccccc3)c(=O)n3c2-c2sccc2CN3)C1` [E, (R)-1-[(4,5-dihydro-7-oxo-8-phenyl-7H-pyrido[1,2-b]thieno[2,3-d]pyridazin-10-yl)carbonyl]-3-methoxypyrrolidine], the median effective dose (ED50) in data set [2] came to 1.4 mg/kg.
On to `CN(C)C(=O)c1cc(-c2ccccc2)c(=O)n2c1-c1cc(Cl)ccc1CN2` [D, 10-chloro-6,7-dihydro-N,N-dimethyl-4-oxo-3-phenyl-4H-pyrido[2,1-a]-phthalazine-1-carboxamide], for which the ED50 in data set [2] turned out to be 0.23 mg/kg.
For `COC1CN(C(=O)c2cc(-c3ccccc3)c(=O)n3c2-c2sccc2C(C)N3)C1` (racemic) [F, rac-1-[(4,5-dihydro-4-methyl-7-oxo-8-phenyl-7H-pyrido[1,2-b]thieno[2,3-d]pyridazin-10-yl)carbonyl]-3-methoxyazetidine], in data set [1], the LD50 came out at 3000 mg/kg. For the same molecule, in data set [2], the 50% effect level (ED50) was put at a dose of 3.3 mg/kg.
Consider `COC1CN(C(=O)c2cc(-c3ccccc3)c(=O)n3c2-c2cc(Cl)ccc2CN3)C1` [C, 1-[(10-chloro-6,7-dihydro-4-oxo-3-phenyl-4H-pyrido[2,1-a]phthalazin-1-yl)carbonyl]-3-methoxyazetidine], for which, in data set [2], the 50% effect level (ED50) was put at a dose of 0.56 mg/kg.
For `CN(C)C(=O)c1cc(-c2ccccc2)c(=O)n2c1-c1sccc1CN2` [H, 4,5-dihydro-N,N-dimethyl-7-oxo-8-phenyl-7H-pyrido[1,2-b]thieno[2,3-d]pyridazine-10-carboxamide], the LD50 in data set [1] was over 5000 mg/kg. For the same molecule, it took a dose of 0.29 mg/kg to reach the 50% effect level in data set [2] (ED50).
